Patent US5445944A, “Methods for determining peroxidately active substances” (Syntex (U.S.A.) Inc., priority 1994, dated 1995)

Experiments:
[1] = Suitability of benzidines as hydrogen donor in the peroxidase cleavage reaction
[2] = Trapping of / reaction with oxidized dicarboxidine in solution
[3] = molecular target: T1, HRP (Armoracia rusticana, UniProt P00433); test: Release of fluorophore at pH 7.0 (HRP/H2O2); type: biochemical, horseradish; settings: phosphate buffer 0.1M pH 7.0, H2O2, 0.1 mL HRP (100 ng/mL); experiment repeated (two lines)
T1 sequence (P00433 31-338 limits assumed): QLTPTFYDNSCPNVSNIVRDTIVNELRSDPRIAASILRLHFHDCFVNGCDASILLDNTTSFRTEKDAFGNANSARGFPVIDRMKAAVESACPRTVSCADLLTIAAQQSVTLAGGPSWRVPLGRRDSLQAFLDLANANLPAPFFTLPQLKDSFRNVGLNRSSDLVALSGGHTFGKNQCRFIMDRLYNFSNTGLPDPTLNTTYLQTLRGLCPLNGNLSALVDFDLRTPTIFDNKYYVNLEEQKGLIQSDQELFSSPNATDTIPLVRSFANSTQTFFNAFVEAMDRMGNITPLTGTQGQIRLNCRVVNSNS
Method: 0.01 mL of dicarboxidine 11 (or XV), 0.1 mL of 49 and 0.04 mL of H2 O2 were added to 0.75 mL (0.76 mL) of phosphate buffer (0.1M, pH 7.0). 0.1 mL of HRP (100 ng/mL) was added to start the reaction and the spectra recorded. This experiment was repeated.

[4] = molecular target: T1, HRP; test: Release of fluorophore, pH jump method (HRP/H2O2 cleavage at pH 5.0, fluorescence read at pH 8.0); type: biochemical, horseradish; settings: pH jump: reaction in citrate buffer pH 5.0 with H2O2 and 0.1 mL HRP (10 ng/mL); aliquot read in phosphate buffer pH 8.0; experiment repeated (two lines)
Method: 0.01 mL of dicarboxidine 11 (or XV), 0.1 mL of 49 and 0.04 mL of H2 O2 were added to 0.75 mL (0.76 mL) citrate buffer (pH 5.0, 0.1M); 0.1 mL of HRP (10 ng/mL) was added to start the reaction. 0.05 mL of this solution was taken every three minutes and added to 0.95 mL of phosphate buffer (pH 8.0, 1.0M) and spectra recorded. This experiment was repeated.
Results: Fluorescence after 3 minutes--background fluorescence.

## Cc1cc(-c2ccc(N)c(C)c2)ccc1N [3,3'-dimethylbenzidine]
[1]
  Function as benzidine hydrogen donor: function in the present invention

## COc1ccc(O)cc1C(=O)O [2-methoxy-5-hydroxybenzoic acid]
[2]
  Effect on / reaction with oxidized dicarboxidine: react with oxidized dicarboxidine

## COc1ccc(O)c(C(=O)O)c1 [2-hydroxy-5-methoxy benzoic acid]
[2]
  Effect on / reaction with oxidized dicarboxidine: has no effect on oxidized dicarboxidine

## COc1ccc(OC)cc1 [Para-methoxy anisole]
[2]
  Effect on / reaction with oxidized dicarboxidine: has no effect on oxidized dicarboxidine

## Cc1cc(-c2cc(C)c(N)c(C)c2)cc(C)c1N [3,3',5,5'-tetramethylbenzidine]
[1]
  Function as benzidine hydrogen donor: do not react at a rate acceptable for assays

## O=C(O)c1cc(O)ccc1O [Gentisic acid, gentisic acid]
[2]
  Effect on / reaction with oxidized dicarboxidine: react with oxidized dicarboxidine

## CN(C)c1ccc(-c2ccc(N(C)C)cc2)cc1 [N,N,N',N'-tetramethylbenzidine]
[1]
  Function as benzidine hydrogen donor: do not react at a rate acceptable for assays

## COc1ccccc1OC [ortho-methoxy anisole]
[2]
  Effect on / reaction with oxidized dicarboxidine: has no effect on oxidized dicarboxidine

## O=C(NCCS(=O)(=O)O)c1cc2ccc(Oc3ccc(O)cc3)cc2oc1=O [Compound 49]
[3]
  Fluorescence: 40 F.U.
[4]
  Fluorescence after 3 minutes--background fluorescence: 0.50 F.U.

## Nc1ccc(-c2ccc(N)cc2)cc1 [benzidine]
[1]
  Function as benzidine hydrogen donor: function in the present invention
